Molecular target: Kynurenine/alpha-aminoadipate aminotransferase, mitochondrial (Homo sapiens, UniProt Q8N5Z0)
Test: Inhibition Spectra Assay : Formation of kynurenic acid (KYNA) is indirectly assessed by a decrease in light absorbance at 370 nm (OD370) as the L-kynurenine (KYN) substrate is converted by the human KAT II (hKAT II) enzyme into KYNA.

Chain of Kynurenine/alpha-aminoadipate aminotransferase, mitochondrial (Q8N5Z0 whole entry): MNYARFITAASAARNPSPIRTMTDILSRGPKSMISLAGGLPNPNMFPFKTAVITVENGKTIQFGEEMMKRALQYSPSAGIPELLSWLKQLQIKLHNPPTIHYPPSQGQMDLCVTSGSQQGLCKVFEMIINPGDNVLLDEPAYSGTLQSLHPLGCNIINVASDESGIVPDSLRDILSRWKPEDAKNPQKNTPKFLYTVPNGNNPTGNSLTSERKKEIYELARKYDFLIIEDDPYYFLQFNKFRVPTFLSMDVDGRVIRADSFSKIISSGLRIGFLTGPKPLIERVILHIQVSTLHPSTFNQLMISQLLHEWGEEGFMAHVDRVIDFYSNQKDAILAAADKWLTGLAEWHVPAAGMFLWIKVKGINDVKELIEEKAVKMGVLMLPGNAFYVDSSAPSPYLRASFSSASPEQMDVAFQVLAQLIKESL

- IC50: 85 nM
SMILES: NC1Cc2nn(-c3ccccc3)cc2N(O)C1=O (stereo unspecified)

From ChEMBL document CHEMBL3639371, “KAT II inhibitors” (2013)
